The text below walks through data of ChEMBL document CHEMBL6177932 (J Med Chem, 2024).

Molecules are shown by their SMILES. The source made the active and inactive calls. No cut-off for these calls is given here.

The target of data set [1] is T1, Vitamin D3 receptor (Mus musculus) (UniProt P48281).
T1 sequence (whole entry): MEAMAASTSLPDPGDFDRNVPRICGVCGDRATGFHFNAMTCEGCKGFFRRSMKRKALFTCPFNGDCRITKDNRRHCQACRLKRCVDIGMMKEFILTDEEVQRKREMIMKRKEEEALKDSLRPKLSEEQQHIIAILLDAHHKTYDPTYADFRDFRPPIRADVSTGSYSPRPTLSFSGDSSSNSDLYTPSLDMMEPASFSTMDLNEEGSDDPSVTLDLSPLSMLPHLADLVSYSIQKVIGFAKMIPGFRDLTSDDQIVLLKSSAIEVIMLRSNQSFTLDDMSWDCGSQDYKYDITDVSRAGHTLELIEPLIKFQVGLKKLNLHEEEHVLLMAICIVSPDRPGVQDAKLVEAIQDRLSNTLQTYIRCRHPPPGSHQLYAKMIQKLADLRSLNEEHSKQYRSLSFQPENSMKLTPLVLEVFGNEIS
The data set can be described thus: Agonist activity at VDR in mouse 4T1 cells assessed as induction of Cyp24a1 gene at 0.1 to 10 uM measured after 24 hrs by RT-qPCR analysis. The settings on record: filed as agonist, dose 0.1-10 µM. In kind it is cell-based. A general note: Real-time PCR tracks product formation cycle by cycle.

Data set [2] addresses T1, Vitamin D3 receptor (Mus musculus). Put plainly: Agonist activity at VDR in mouse 4TO7 cells assessed as induction of Cyp24a1 gene at 0.1 to 10 uM measured after 24 hrs by RT-qPCR analysis. In kind it is cell-based. The settings on record: filed as agonist, dose 0.1-10 µM.
Data set [3] has the same target. Put plainly: Agonist activity at VDR in mouse B16-F10 cells assessed as induction of Cyp24a1 gene at 1 to 10 uM measured after 24 hrs by RT-qPCR analysis. The note with it: filed as agonist, dose 1-10 µM. In kind it is cell-based.
The test system of data set [4] is B16-F10. Put plainly: Antitumor activity against mouse B16-F10 cells implanted in C57BL/6 mouse assessed as reduction in tumor burden at 5 mg/kg, ip administered every second day for 18 days. In kind it is functional, organism-based. The note with it: time 18.0 day.
The nature of data set [5]: Toxicity in 4T1 cells implanted BALB/c mouse assessed as stress at 1.5 to 5 mg/kg, ip administered daily for 18 days. In kind it is organism-based. The settings on record: in vivo, 432 h, dose 1.5-5 mg/kg, time 18 day.
Data set [6] has as its system Mus musculus. The data set can be described thus: Immunomodulatory activity in mouse 4T1 cells implanted BALB/c mouse assessed as reduction in Cxcl10 gene expression at 1.5 to 5 mg/kg, ip administered daily for 18 days by RT-qPCR analysis. In kind it is functional, organism-based. The settings on record: dose 1.5-5 mg/kg, time 18.0 day.
The test system of data set [7] is Mus musculus. Put plainly: Immunomodulatory activity in mouse 4T1 cells implanted BALB/c mouse assessed as reduction in total macrophage infiltration into tumors at 1.5 to 5 mg/kg, ip administered daily for 18 days by F4/80 staining based immunofluorescence microscopy. In kind it is functional, organism-based. The settings on record: dose 1.5-5 mg/kg, time 18.0 day.

For data set [8], the target named is Vitamin D3 receptor (Mus musculus) (UniProt P48281). Put plainly: In vivo agonist activity at VDR in mouse B16-F10 cells implanted C57BL/6 mouse assessed as induction of Cyp24al gene in tumor at 5 mg/kg, ip administered 2 times at 24 hrs interval by RT-qPCR analysis. The note with it: time 48.0 hrs.

With `CCC(CC)(c1ccc(C(=O)NCCCCC(=O)NO)cc1)c1ccc(OCC(O)C(C)(C)C)c(C)n1` (stereo not drawn), the outcome in data set [1], in data set [2], in data set [3], in data set [4], in data set [6] and in data set [8] was Active. For the same compound, the Activity entry in data set [5] is “Non-toxic”; in data set [7], “Active; Significantly Reduced Macrophage Infiltration Into Tumor”.
